These are literature values, as cited in US20180289421A1, “SYSTEMS AND METHODS FOR TREATING NAIL FUNGUS” (Terimber Corporation, priority 2017, published 2018).

Structures are written as SMILES.

The conditions of data set [1]: systemic antifungal therapy.
Another data set concerns onychomycosis. The conditions noted are these: oral, 12-week course.

In the case of `CCC(C)n1ncn(-c2ccc(N3CCN(c4ccc(OCC5COC(Cn6cncn6)(c6ccc(Cl)cc6Cl)O5)cc4)CC3)cc2)c1=O` (stereo not shown) [Itraconazole], in data set [1], the cardiac toxicity entry is reported as “may induce cardiac toxicity”.
With `CN(C/C=C/C#CC(C)(C)C)Cc1cccc2ccccc12` [terbinafine, [(2E)-6,6-dimethylhept-2-en-4-yn-1-yl](methyl)(naphthalen-1-ylmethyl)amine], in the data set on onychomycosis, the “maximal clinical response rate” value is given as 60%-70% and the mycologic cure rate is 71%-82%. In data set [1], the liver toxicity entry is “can elevate liver enzymes and has progressed to fulminant liver failure”.
